Columns and labels:
[1] = molecular target: RET (V804M) (Homo sapiens, UniProt P07949, V804M); experiment: In vitro enzyme activity test, RET (V804M) kinase; type: biochemical; settings: ATP 30 μM
Procedure: (§1) The enzyme activity was experimentally detected by Z'-LYTE™ kinase test, and the inhibitory effect of the compound on RET and RET (V804M) kinase was evaluated with the IC50 value of the compound as an indicator. The concentration of the compound used for the RET and RET (V804M) kinase test was diluted by a factor of 3, giving 10 concentrations from 3 μM to 0.152 nM. The content of DMSO in the detection reaction was 1%. Basic reaction buffer, 20 mM hydroxyethyl piperazine-ethanesulfonic acid (Hepes) (pH 7.5) buffer, 10 mM MgCl2, 1 mM ethylene glycol bis(aminoethyl ether)tetraacetic acid (EGTA), 0.02% polyoxyethylene dodecyl ether (Brij35), 0.02 mg/mL bovine serum protein, 0.1 mM Na3VO4, 2 mM dithiothreitol (DTT) and 1% DMSO. The compound to be tested was dissolved in 100% DMSO system and diluted to 10 mM for use. Integra Viaflo Assist was used for solution dilution. Test conditions: The concentration of RET enzyme was […], the concentration of the peptide substrate CHKtide was 1000 μM, and the concentration of ATP was 20 μM; and the concentration of RET (V804M) enzyme was […], the concentration of substrate peptide was 1000 μM, and the concentration of ATP was 30 μM. […]. Phosphoric acid with a concentration of 0.5% was added to the kinase reaction solution to stop the reaction, and Envision instrument was used for plate reading. […]

[2] = Pharmacokinetic evaluation in mice (IV and PO); type: in vivo; settings: mouse, plasma, female Balb/c mice
Procedure: Experimental procedure: A 0.1 mg/mL clear solution of the test compound in the corresponding solvent medium (see Table 22) was injected into female Balb/c mice (fasting overnight, 7-9 weeks old) via tail vein at a dose of 0.2 mg/kg. About 30 μL of blood was collected from jugular vein or tail vein at 0.0833, 0.25, 0.5, 1.0, 2.0, 4.0, 8.0 and 24 h after intravenous administration. 0.2 mg/mL of the test compound suspended in the corresponding solvent medium (see Table 22) was given to female Balb/c mice (fasting overnight, 7-9 weeks old) by gavage at a dose of 2 mg/kg. The experimental conditions were detailed in Table 22. At 0.0833, 0.25, 0.5, 1.0, 2.0, 4.0, 6.0, 8.0 and 24 h after oral administration, about 30 μL of blood was collected from the jugular vein or tail vein of the female Balb/c mice. The blood was placed in an anticoagulant tube in which EDTA-K2 had been added, and plasma was separated by centrifugation. The plasma concentration was determined by LC-MS/MS method, and the relative pharmacokinetic parameters were calculated using WinNonlin™ Version 6.3 (Pharsight, Mountain View, CA) pharmacokinetic software by non-compartment model linear logarithmic trapezoidal method. [table]

[3] = molecular target: RET (Homo sapiens, UniProt P07949); experiment: In vitro enzyme activity test, RET kinase; type: biochemical; settings: ATP 20 μM
Procedure: as §1

[4] = system: Ba/F3-CCDC6-RET cell xenograft tumor model; experiment: Analysis of tumor growth inhibition (TGI); type: in vivo, BALB/c nude female mice; settings: 10 mg/kg D0-D13 / 5 mg/kg D14-D17 / 2.5 mg/kg D18-D28, BID
Procedure: Ba/F3-CCDC6-RET cell strain was cultured using 1640 medium (Biological Industries)+10% fetal bovine serum (BI)+1% double antibody (Penicillin Streptomycin solution, Coring, USA) at 37° C. with 5% CO2 and subcultured twice a week. When the cell saturation is 80-90%, cells were collected, counted, and inoculated subcutaneously into the right axillary of BALB/c nude female mice (6-8 weeks). After the inoculation was completed, the tumor growth status was observed day by day. When the average tumor volume reached about 165.77 mm^3, the mice were randomly divided into groups, with 6 mice per group, and administration was started.
The health status and death of the animals were detected daily. Routine examinations included tumor growth, activity, diet, weight, eyes, hair and other abnormal behaviors of the animals, and the tumor volume and weight were measured twice a week (Tuesday and Friday).
The inhibitory effect of the compound on tumor growth was evaluated by the relationship between tumor volume and time. The tumor volume was measured by vernier caliper, with the formula being TV=0.5 a×b^2, wherein, “a” was the long diameter of the tumor and “b” was the short diameter of the tumor. […]
it was calculated by the following formula: […]

[5] = Solid stability experiment, high temperature and high humidity (XRPD); type: physicochemical
Text: For samples placed under high temperature and high humidity, use aluminum foil to seal the bottle, and prick some holes on the aluminum foil to ensure that the sample can fully contact with the ambient air. The samples placed under different conditions were sampled for XRPD detection on Days 5 and 10, and the test results were compared with the initial test results on Day 0.

[6] = Solid stability study, long-term conditions (XRPD); type: physicochemical; settings: for Crystal form (XRPD): 3 months
Procedure: The flasks were placed under 40° C./75% RH conditions for 3 months or under 25° C./60% RH conditions for 3 months, then sampled for XRPD detection, and the detection results were compared with the initial test results of Day 0.

[7] = Hygroscopicity study by dynamic vapor sorption (DVS); type: physicochemical; settings: 25° C. and 80% RH
Procedure: • Instrument model: SMS DVS Intrinsic dynamic vapor sorption instrument • Test conditions: A sample (10-15 mg) is taken and placed in a DVS sample tray for testing.
Detailed DVS Parameters are as Follows: • Temperature: 25° C. • Balance: dm/dt=0.01%/min (shortest: 10 min, longest: 180 min) • Drying: at 0% RH for 120 min • RH (%) test gradient: 10% • RH (%) test gradient range: 0%-90%-0%
Hygroscopicity Assessment is Classified as Follows:
SMS DVS Intrinsic Dynamic Vapor Sorption Instrument

Chain of RET (V804M) (P07949 29-1114 V804M): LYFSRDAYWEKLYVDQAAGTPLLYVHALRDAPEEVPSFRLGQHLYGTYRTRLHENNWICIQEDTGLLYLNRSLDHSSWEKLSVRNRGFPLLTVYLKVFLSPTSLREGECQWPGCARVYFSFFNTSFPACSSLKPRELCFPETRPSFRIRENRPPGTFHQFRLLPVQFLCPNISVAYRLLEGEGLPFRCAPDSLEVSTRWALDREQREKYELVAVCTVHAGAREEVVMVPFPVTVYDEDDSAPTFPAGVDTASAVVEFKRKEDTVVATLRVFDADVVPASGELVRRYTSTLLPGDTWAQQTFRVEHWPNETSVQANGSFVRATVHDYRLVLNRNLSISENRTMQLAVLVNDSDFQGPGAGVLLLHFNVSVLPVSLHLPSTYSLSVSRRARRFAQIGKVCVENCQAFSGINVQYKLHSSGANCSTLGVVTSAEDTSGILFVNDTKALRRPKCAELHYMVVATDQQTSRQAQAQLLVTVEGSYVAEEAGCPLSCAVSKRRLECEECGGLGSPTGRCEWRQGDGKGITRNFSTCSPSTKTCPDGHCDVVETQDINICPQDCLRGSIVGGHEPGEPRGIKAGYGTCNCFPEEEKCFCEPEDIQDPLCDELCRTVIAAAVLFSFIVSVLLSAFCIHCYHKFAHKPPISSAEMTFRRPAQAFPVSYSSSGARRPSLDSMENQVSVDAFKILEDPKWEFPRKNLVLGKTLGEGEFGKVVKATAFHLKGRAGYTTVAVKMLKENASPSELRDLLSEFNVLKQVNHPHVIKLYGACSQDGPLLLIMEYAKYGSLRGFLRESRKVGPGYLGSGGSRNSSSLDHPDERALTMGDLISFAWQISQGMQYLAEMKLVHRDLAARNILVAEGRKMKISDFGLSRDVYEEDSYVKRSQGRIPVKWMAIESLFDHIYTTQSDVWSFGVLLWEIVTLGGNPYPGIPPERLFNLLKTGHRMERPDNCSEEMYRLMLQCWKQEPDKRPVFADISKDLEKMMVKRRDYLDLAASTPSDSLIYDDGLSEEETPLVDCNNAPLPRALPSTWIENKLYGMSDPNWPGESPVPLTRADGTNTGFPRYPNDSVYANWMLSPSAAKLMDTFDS
Chain of RET (P07949 29-1114): as the sequence (P07949 29-1114 V804M) above, with M776V counted along it

## COc1ccc(CN2C3CC2CN(c2cnc(-c4cc(C5=CCOCC5)cn5ncc(C#N)c45)cn2)C3)cn1 [listing 1 of 2 here]
[1]
  IC50: 5.86 nM
[2]; IV 0.2 mg/kg
  AUC(0-t): 2.79 µM·h
[2]; IV 0.2 mg/kg, read-out: Cl (plasma clearance)
  clearance: 2.3 mL/min/kg
[2]; IV 0.2 mg/kg, read-out: T1/2 (elimination half-life) (converted)
  half-life: 2.6 h
[2]; IV 0.2 mg/kg, read-out: Vdss (apparent steady-state distribution volume)
  Vd: 0.5 L/kg
[2]; PO 2 mg/kg
  AUC(0-t): 26.9 µM·h
  Cmax: 5.34 µM
  Tmax: 2 h
[3]
  IC50: 0.72 nM
[4]
  TGI % (tumor volume on Day 23 after administration): 98%

## COc1ccc(CN2C3CC2CN(c2cnc(-c4cc(C5=CCOCC5)cn5ncc(C#N)c45)cn2)C3)cn1 [listing 2 of 2 here]
[5]; High humidity (room temperature/relative humidity 92.5%, open), Day 5
  Crystal form (XRPD): Crystal form A
[5]; High humidity (room temperature/relative humidity 92.5%, open), Day 10
  Crystal form (XRPD): Crystal form A
[5]; High temperature (60° C., open), Day 5
  Crystal form (XRPD): Crystal form A
[5]; High temperature (60° C., open), Day 10
  Crystal form (XRPD): Crystal form A
[5]; high temperature and high humidity
  Solid stability (in words): good stability
[6]; 25° C./60% RH
  Crystal form (XRPD): Crystal form A
[6]; 40° C./75% RH
  Crystal form (XRPD): Crystal form A
[6]; all stability conditions (40° C./75% RH, 25° C./60% RH, 3 months)
  Crystal form change (in words): no crystal form change
[6]; long-term conditions
  Solid stability (in words): good stability
[7]
  Classification of hygroscopicity: slightly hygroscopic
  ΔW (hygroscopic weight gain): 0.8%

Source: patent US20230365596A1, “CRYSTAL FORMS OF PYRIDOPYRAZOLE COMPOUNDS AND PREPARATION METHOD THEREFOR” (GUANGZHOU BAIYUNSHAN PHARMACEUTICAL HOLDINGS CO., LTD. …, priority 2020, published 2023)
